Reference: PMC8231556, “Inhibiting Endothelial Cell Function in Normal and Tumor Angiogenesis Using BMP Type I Receptor Macrocyclic Kinase Inhibitors” (Cancers, 2021)

Key:
PDK1 = target: T1, PDK1 (Homo sapiens, UniProt O15530); assay: radiometric kinase profiling (33 PanQinase); type: biochemical; settings: read-out: Inhibitory effect (%) PDK1
T1 construct: purchased ProQinase (33PanQinase Activity Assay)
T1 sequence (O15530 1-556): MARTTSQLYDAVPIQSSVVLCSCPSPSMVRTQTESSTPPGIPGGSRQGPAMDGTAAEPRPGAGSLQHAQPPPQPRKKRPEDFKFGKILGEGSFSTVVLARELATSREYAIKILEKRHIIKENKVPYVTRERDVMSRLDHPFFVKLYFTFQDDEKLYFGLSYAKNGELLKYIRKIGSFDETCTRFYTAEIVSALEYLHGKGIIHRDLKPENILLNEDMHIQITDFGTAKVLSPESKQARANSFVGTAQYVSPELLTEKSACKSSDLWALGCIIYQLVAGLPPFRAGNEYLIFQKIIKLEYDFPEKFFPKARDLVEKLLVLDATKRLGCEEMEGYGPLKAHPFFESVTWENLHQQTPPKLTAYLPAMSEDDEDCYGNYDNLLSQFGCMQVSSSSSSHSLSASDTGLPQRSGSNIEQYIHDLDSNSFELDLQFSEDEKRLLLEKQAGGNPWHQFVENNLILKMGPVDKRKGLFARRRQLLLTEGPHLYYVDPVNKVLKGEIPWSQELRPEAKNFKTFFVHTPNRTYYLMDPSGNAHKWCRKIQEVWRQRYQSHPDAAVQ
In short: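 Enzyme/substrate mixes were incubated with [γ-33P]-ATP and compound (added as a 0.1 μM solution in 10% DMSO) at 30 °C for 60 min, then stopped with H3PO4 and washed with NaCl. 33P incorporation was scintillation-counted, and residual activity (%) was normalized to untreated control and background.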

EA.hy926 cells = assay: Scratch wound migration assay; type: cell-based, human; settings: 0.5 µM, 24 h; for effect on FBS-induced EC migration: 1% FBS; for effect on BMP9-induced EC migration: BMP9 1 ng/mL; for effect on VEGF-induced EC migration: VEGF 15 ng/mL
Procedure: Approximately 5 × 10^4 EA.hy926 cells/well were seeded in a 96-well microplate Essen ImageLock™ (4379, Essen Bioscience, Ann Arbor, MI, USA) and cultured overnight. Then homogeneous 700–800 micron-wide scratch wounds were made using a WoundMaker™ device (4563, Essen Bioscience, Ann Arbor, MI, USA) containing 96 pins. The compounds and/or ligands were added to each well in 100 µL of fresh serum-free medium. Each group contained 6 replicates. Real-time pictures were acquired every 4 h by the IncuCyte ZOOM (Essen Bioscience) to track the wound closure. The wound density was analyzed using the software package provided by the manufacturer and normalized to the wound width at the start of the experiment. All the experiments were repeated at least three times, and representative results are shown.

[1] = test system: BMP6-induced SMAD1/5 phosphorylation; assay: Western blot of BMP6-induced SMAD1/5 phosphorylation in EA.hy926 cells; type: cell-based, human; settings: BMP6 50 ng/mL
Procedure: (§1) EA.hy926 cells or HUVECs were seeded in 6-well plates and starved in a serum-free medium for 4 h after reaching 80% confluence. The compounds were added 30 min prior to stimulation with the corresponding ligands. EA.hy926 cells were incubated with BMP9 (1 ng/mL), BMP6 (50 ng/mL), TGF-β2 (1 ng/mL), or vehicle control for 1 h. For HUVECs, after 4 h starvation, the cells were pre-treated with or without the indicated compounds for 30 min and subsequently stimulated with VEGF (40 ng/mL) for 10 min. The cells were harvested and lysed in radioimmunoprecipitation assay (RIPA) lysis buffer containing 1× complete protease inhibitor cocktail (11836153001, Roche, Basel, Switzerland). The protein concentration was determined using the DC protein assay kit (5000111, Bio-Rad). After adding loading buffer, the samples were boiled and proteins separated by sodium dodecyl sulfate polyacrylamide gel electrophoresis (SDS-PAGE). Proteins in the gel were transferred to polyvinylidene difluoride (PVDF) membranes (IPVH00010, Merck Millipore, Burlington, MA, USA) and immunoblotted with 1000 times diluted primary antibodies: phospho-SMAD1/5 (9516 S, Cell Signaling Technology, Leiden, The Netherlands), phospho-SMAD2 (pSMAD2, home-made), SMAD1 (6944 S, Cell Signaling Technology), SMAD2 (3103 S, Cell Signaling Technology), phospho-extracellular signal-regulated kinase/mitogen-activated protein kinase (pERK/MAPK, 4370, Cell Signaling Technology), mitogen-activated protein kinase/ERK1/2 (ERK1/2/MAPK, 9102 S, Cell Signaling Techonol), VEGFR (2479, Cell Signaling), pVEGFR (2478, Cell Signaling Technology), α/β-Tubulin (2148, Cell Signaling Technology), glyceraldehyde 3-phosphate dehydrogenase (GAPDH, MAB374, Merck Millipore). Clarity™ enhanced chemiluminescence (ECL) reagent (1705060, Bio-Rad) was used to visualize secondary antibodies conjugated to horseradish peroxidase (HRP). GAPDH or Tubulin was used as protein loading controls. All the experiments were repeated at least three times, and representative experiments are shown. The protein bands were quantified using ImageJ (National Institutes of Health, Bethesda, MD, USA).

[2] = test system: Tg (fli:EGFP) zebrafish embryos; assay: Zebrafish subintestinal vessel (SIV) formation; type: in vivo; settings: 0.5 µM, 3 days
Procedure: The Tg (fli:EGFP) zebrafish embryos were collected, and embryos with the same development stage (around 2.5 hpf) were selected. Groups containing at least 25 embryos were treated with the indicated compounds at 0.5 µM for 3 days. The egg water was refreshed every day, and the abnormal embryos were removed. After 3 days of treatment, the zebrafish embryos were fixed in 4% PFA for 2 h at room temperature and stored at 4 °C in PBS. The area containing SIV in each zebrafish embryo was scanned with an Andor Dragonfly 500 spinning disk confocal by using a 488 nm laser. At least ten zebrafish embryos in each group were randomly selected and analyzed. The SIV vasculature of the zebrafish was quantified with ImageJ. The leading buds were counted as previously described. The experiments were repeated twice with similar results.

VEGF-induced pERK = assay: Western blot of VEGF-induced ERK MAP kinase phosphorylation in HUVECs; type: cell-based, human; settings: VEGF 40 ng/mL
Procedure: as §1, with “All the experiments were repeated at least three times, and representative experiments are shown.” left out

Row | SMILES | inhibition at 0.1 µM (PDK1) | effect on FBS-induced EC migration (EA.hy926 cells) | effect on BMP9-induced EC migration (EA.hy926 cells) | effect on VEGF-induced EC migration (EA.hy926 cells) | effect on BMP6-induced SMAD1/5 phosphorylation ([1]; 0.1 µM compound) | effect on BMP6-induced SMAD1/5 phosphorylation ([1]; 1 µM compound) | effect on SIV vessel length [2] | effect on number of SIV tip cells (leading buds) [2] | effect on VEGF-induced pERK (VEGF-induced pERK)
1 | CN1CCC(=O)NCCNc2ccn3ncc(c3n2)-c2cccc(c2)C1 [OD29] | -1.4% | effective in suppressing | significantly inhibited | antagonized | failed to antagonize | very weak inhibitory effect | significantly inhibited | did not influence | profoundly decreased
2 | CN1CCc2cccc(c2)Nc2nccc(n2)N2CCCc3cc(ccc32)C1 [OD16] | -7.16% | did not affect | significantly inhibited | antagonized | efficiently inhibited |  | significantly inhibited | did not influence | failed to alter
3 | c1ccc2c(-c3cnn4cc(-c5ccc(N6CCNCC6)cc5)cnc34)ccnc2c1 [LDN-193189, reference compound] | -8.72% | did not affect | significantly inhibited | no inhibitory effect | efficiently inhibited |  | resulted in a lack of SIV vessels | significantly increased | 
4 | CNC(=O)c1ccccc1Sc1ccc2c(/C=C/c3ccccn3)n[nH]c2c1 [Axitinib, reference compound] |  |  |  |  |  |  | markedly inhibited |  | blocked
